This experiment addresses USP7 (Homo sapiens, UniProt Q93009). Put plainly: USP7 inhibitory potency (IC50). It counts as biochemical. Here is the method:
Activity for compounds described herein is provided in Table 2, wherein potency levels are provided as follows: (Potency: USP7 IC50: A<0.01 μM; B=0.01-0.1 μM; C=>0.1 μM.

The structures appear in SMILES notation.

Chain of USP7 (Q93009 whole entry): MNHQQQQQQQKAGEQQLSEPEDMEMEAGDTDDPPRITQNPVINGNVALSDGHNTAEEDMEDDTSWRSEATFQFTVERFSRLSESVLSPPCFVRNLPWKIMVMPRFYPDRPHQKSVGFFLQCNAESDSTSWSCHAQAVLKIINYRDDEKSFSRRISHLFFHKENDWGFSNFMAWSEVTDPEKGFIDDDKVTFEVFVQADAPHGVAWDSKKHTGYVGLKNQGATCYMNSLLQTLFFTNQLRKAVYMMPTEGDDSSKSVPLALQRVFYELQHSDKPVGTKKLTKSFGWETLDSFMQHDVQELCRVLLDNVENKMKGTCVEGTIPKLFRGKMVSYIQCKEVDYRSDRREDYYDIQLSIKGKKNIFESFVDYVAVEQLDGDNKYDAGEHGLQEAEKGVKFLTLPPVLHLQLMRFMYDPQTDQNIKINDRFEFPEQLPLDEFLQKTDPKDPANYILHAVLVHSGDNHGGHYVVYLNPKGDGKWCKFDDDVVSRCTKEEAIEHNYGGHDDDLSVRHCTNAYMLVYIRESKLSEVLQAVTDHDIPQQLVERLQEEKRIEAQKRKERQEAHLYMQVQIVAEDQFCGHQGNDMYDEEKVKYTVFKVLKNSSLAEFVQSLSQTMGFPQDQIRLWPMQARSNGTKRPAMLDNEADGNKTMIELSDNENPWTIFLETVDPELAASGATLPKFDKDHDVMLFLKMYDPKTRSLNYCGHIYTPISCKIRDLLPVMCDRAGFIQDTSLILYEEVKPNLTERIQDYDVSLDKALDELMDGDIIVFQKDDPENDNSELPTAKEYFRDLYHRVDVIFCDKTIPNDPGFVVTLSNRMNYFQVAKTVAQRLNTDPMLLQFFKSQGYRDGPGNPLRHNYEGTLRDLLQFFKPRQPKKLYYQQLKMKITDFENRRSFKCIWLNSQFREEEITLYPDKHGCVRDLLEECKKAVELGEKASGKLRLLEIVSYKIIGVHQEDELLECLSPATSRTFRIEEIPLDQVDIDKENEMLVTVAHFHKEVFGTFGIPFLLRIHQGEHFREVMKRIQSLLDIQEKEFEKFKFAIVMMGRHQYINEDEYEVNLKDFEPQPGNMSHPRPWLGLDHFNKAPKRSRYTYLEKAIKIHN

`Cc1cc(Cl)cc(-c2ncnc3cc(Cn4c(=O)ccn(CC(F)(F)F)c4=O)sc23)c1CN1C[C@@H](C)NC[C@@H]1C` [Example 73, 3-((4-(5-chloro-2-(((2S,5R)-2,5-dimethylpiperazin-1-yl)methyl)-3-methylphenyl)thieno[3,2-d]pyrimidin-6-yl)methyl)-1-(2,2,2-trifluoroethyl)pyrimidine-2,4(1H,3H)-dione]: the IC50 is < 10 nM. As for `C[C@H]1CNCCN1Cc1c(F)cc(F)cc1-c1ncnc2cc(CN3C(=O)C4CC4C3=O)sc12` (stereo partly drawn) [Example 74, 3-((4-(3,5-difluoro-2-(((S)-2-methylpiperazin-1-yl)methyl)phenyl)thieno[3,2-d]pyrimidin-6-yl)methyl)-3-azabicyclo[3.1.0]hexane-2,4-dione], the IC50 is > 100 nM. The same measure for `C[C@@H]1CN(Cc2c(Cl)cc(Cl)cc2-c2ncnc3cc(CN4C(=O)C5CC5C4=O)sc23)[C@@H](C)CN1` (stereo partly drawn) [Example 75, 3-((4-(3,5-dichloro-2-(((2S,5R)-2,5-dimethylpiperazin-1-yl)methyl)phenyl)thieno[3,2-d]pyrimidin-6-yl)methyl)-3-azabicyclo[3.1.0]hexane-2,4-dione]: < 10 nM. `Cc1cc(Cl)cc(-c2ncnc3cc(CN4C(=O)COC4=O)sc23)c1CN1C[C@@H](C)NC[C@@H]1C` [Example 76, 3-((4-(5-chloro-2-(((2S,5R)-2,5-dimethylpiperazin-1-yl)methyl)-3-methylphenyl)thieno[3,2-d]pyrimidin-6-yl)methyl)oxazolidine-2,4-dione] came in with an IC50 of 10 to 100 nM. As for `Cc1cc(Cl)cc(-c2ncnc3cc(CN4C(=O)CCC4=O)sc23)c1CN1[C@@H](C)CNC[C@@H]1C` [Example 77, 1-((4-(5-chloro-2-(((2S,6S)-2,6-dimethylpiperazin-1-yl)methyl)-3-methylphenyl)thieno[3,2-d]pyrimidin-6-yl)methyl)pyrrolidine-2,5-dione], the figure is < 10 nM; as for `Cc1cc(Cl)cc(-c2ncnc3cc(CN4C(=O)CSC4=O)sc23)c1CN1C[C@@H](C)NC[C@@H]1C` [Example 79, 3-((4-(5-chloro-2-(((2S,5R)-2,5-dimethylpiperazin-1-yl)methyl)-3-methylphenyl)thieno[3,2-d]pyrimidin-6-yl)methyl)thiazolidine-2,4-dione], < 10 nM. Turning to `Cc1cc(Cl)cc(-c2ncnc3cc(CN4C(=O)CN(C)C4=O)sc23)c1CN1C[C@@H](C)NC[C@@H]1C` [Example 80, 3-((4-(5-chloro-2-(((2S,5R)-2,5-dimethylpiperazin-1-yl)methyl)-3-methylphenyl)thieno[3,2-d]pyrimidin-6-yl)methyl)-1-methylimidazolidine-2,4-dione], the 50% inhibitory concentration (IC50) is < 10 nM. Consider `Cc1cc(Cl)cc(-c2ncnc3cc(CN4CCCC4=O)sc23)c1CN1C[C@@H](C)NC[C@@H]1C` [Example 81, 1-((4-(5-chloro-2-(((2S,5R)-2,5-dimethylpiperazin-1-yl)methyl)-3-methylphenyl)thieno[3,2-d]pyrimidin-6-yl)methyl)pyrrolidin-2-one], for which the IC50 was > 100 nM. In the case of `Cc1cc(Cl)cc(-c2ncnc3cc(CN4CCCCC4=O)sc23)c1CN1C[C@@H](C)NC[C@@H]1C` [Example 82, 1-((4-(5-chloro-2-(((2S,5R)-2,5-dimethylpiperazin-1-yl)methyl)-3-methylphenyl)thieno[3,2-d]pyrimidin-6-yl)methyl)piperidin-2-one], the IC50 was > 100 nM. The same measure for `CCN1CC(=O)N(Cc2cc3ncnc(-c4cc(Cl)cc(C)c4CN4C[C@@H](C)NC[C@@H]4C)c3s2)C1=O` [Example 83, 3-((4-(5-chloro-2-(((2S,5R)-2,5-dimethylpiperazin-1-yl)methyl)-3-methylphenyl)thieno[3,2-d]pyrimidin-6-yl)methyl)-1-ethylimidazolidine-2,4-dione]: < 10 nM. For `Cc1cc(Cl)cc(-c2ncnc3cc(CN4C(=O)C5CC5C4=O)sc23)c1CN1[C@@H](C)CN(C(=O)C(F)(F)F)C[C@@H]1C` (stereo partly drawn) [Example 84, 3-((4-(5-chloro-2-(((2S,6S)-2,6-dimethyl-4-(2,2,2-trifluoroacetyl)piperazin-1-yl)methyl)-3-methylphenyl)thieno[3,2-d]pyrimidin-6-yl)methyl)-3-azabicyclo[3.1.0]hexane-2,4-dione], the IC50 is < 10 nM. Take `C[C@H]1CNC[C@H](C)N1Cc1c(Cl)cc(Cl)cc1-c1ncnc2cc(CN3C(=O)C4CC4C3=O)sc12` (stereo partly drawn) [Example 85, 3-((4-(3,5-dichloro-2-(((2S,6S)-2,6-dimethylpiperazin-1-yl)methyl)phenyl)thieno[3,2-d]pyrimidin-6-yl)methyl)-3-azabicyclo[3.1.0]hexane-2,4-dione]: the IC50 was < 10 nM. On to `Cc1cc(Cl)cc(-c2ncnc3cc(CN4C(=O)C5CCCN5C4=O)sc23)c1CN1[C@@H](C)CNC[C@@H]1C` (stereo partly drawn) [Example 86, 2-((4-(5-chloro-2-(((2S,6S)-2,6-dimethylpiperazin-1-yl)methyl)-3-methylphenyl)thieno[3,2-d]pyrimidin-6-yl)methyl)tetrahydro-1H-pyrrolo[1,2-c]imidazole-1,3(2H)-dione], for which the IC50 is < 10 nM.

For `Cc1cc(Cl)cc(-c2ncnc3cc(CN4C(=O)CN(C)C4=O)sc23)c1CN1[C@@H](C)CNC[C@@H]1C` [Example 87, 3-((4-(5-chloro-2-(((2S,6S)-2,6-dimethylpiperazin-1-yl)methyl)-3-methylphenyl)thieno[3,2-d]pyrimidin-6-yl)methyl)-1-methylimidazolidine-2,4-dione], the IC50 is < 10 nM. As for `Cc1cc(Cl)cc(-c2ncnc3cc(CN4C(=O)[C@@H]5CCCN5C4=O)sc23)c1CN1[C@@H](C)CNC[C@@H]1C` [Example 88, (S)-2-((4-(5-chloro-2-(((2S,6S)-2,6-dimethylpiperazin-1-yl)methyl)-3-methylphenyl)thieno[3,2-d]pyrimidin-6-yl)methyl)tetrahydro-1H-pyrrolo[1,2-c]imidazole-1,3(2H)-dione], the figure is < 10 nM; as for `Cc1cc(Cl)cc(-c2ncnc3cc(CN4C(=O)[C@H]5CCCN5C4=O)sc23)c1CN1[C@@H](C)CNC[C@@H]1C` [Example 89, (R)-2-((4-(5-chloro-2-(((2S,6S)-2,6-dimethylpiperazin-1-yl)methyl)-3-methylphenyl)thieno[3,2-d]pyrimidin-6-yl)methyl)tetrahydro-1H-pyrrolo[1,2-c]imidazole-1,3(2H)-dione], < 10 nM; as for `Cc1cc(Cl)cc(-c2ncnc3cc(CN4C(=O)CC[C@H]4C(F)(F)F)sc23)c1CN1[C@@H](C)CNC[C@@H]1C` [Example 90, (S)-1-((4-(5-chloro-2-(((2S,6S)-2,6-dimethylpiperazin-1-yl)methyl)-3-methylphenyl)thieno[3,2-d]pyrimidin-6-yl)methyl)-5-(trifluoromethyl)pyrrolidin-2-one], > 100 nM. The same measure for `Cc1cc(Cl)cc(-c2ncnc3cc(CN4C(=O)CCC4C)sc23)c1CN1[C@@H](C)CNC[C@@H]1C` (stereo partly drawn) [Example 91, 1-((4-(5-chloro-2-(((2S,6S)-2,6-dimethylpiperazin-1-yl)methyl)-3-methylphenyl)thieno[3,2-d]pyrimidin-6-yl)methyl)-5-methylpyrrolidin-2-one]: > 100 nM; for `C[C@H]1CNC[C@H](C)N1Cc1c(Cl)cc(Cl)cc1-c1ncnc2cc(CN3C(=O)CCC3=O)sc12` [Example 92, 1-((4-(3,5-dichloro-2-(((2S,6S)-2,6-dimethylpiperazin-1-yl)methyl)phenyl)thieno[3,2-d]pyrimidin-6-yl)methyl)pyrrolidine-2,5-dione]: < 10 nM; for `C[C@H]1CNC[C@H](C)N1Cc1c(Cl)cc(Cl)cc1-c1ncnc2cc(CN3C(=O)CN(C)C3=O)sc12` [Example 94, 3-((4-(3,5-dichloro-2-(((2S,6S)-2,6-dimethylpiperazin-1-yl)methyl)phenyl)thieno[3,2-d]pyrimidin-6-yl)methyl)-1-methylimidazolidine-2,4-dione]: < 10 nM. As for `Cc1cc(Cl)cc(-c2ccnc3cc(CN4C(=O)CCC4=O)sc23)c1CC1CNCCO1` (centres unmarked) [Example 96, 1-((7-(5-chloro-3-methyl-2-(morpholin-2-ylmethyl)phenyl)thieno[3,2-b]pyridin-2-yl)methyl)pyrrolidine-2,5-dione], the figure is 10 to 100 nM. On to `Cc1cc(Cl)cc(-c2ccnc3cc(CN4C(=O)C5C(C4=O)C5(C)C)sc23)c1CC1CNCC(C)(C)O1` (centres unmarked) [Example 97, 3-((7-(5-chloro-2-((6,6-dimethylmorpholin-2-yl)methyl)-3-methylphenyl)thieno[3,2-b]pyridin-2-yl)methyl)-6,6-dimethyl-3-azabicyclo[3.1.0]hexane-2,4-dione], for which the IC50 was < 10 nM.

As to `Cc1cc(Cl)cc(-c2ccnc3cc(CN4C(=O)C5CC5C4=O)sc23)c1C[C@@H]1CN[C@@H](C)CO1` (some centres unmarked) [Example 98, 3-((7-(5-chloro-3-methyl-2-((5-methylmorpholin-2-yl)methyl)phenyl)thieno[3,2-b]pyridin-2-yl)methyl)-3-azabicyclo[3.1.0]hexane-2,4-dione], the IC50 was < 10 nM. As for `Cc1cc(Cl)cc(-c2ccnc3cc(CN4C(=O)C5CC5C4=O)sc23)c1C[C@@H]1CNC[C@@H](C)O1` (stereo partly drawn) [Example 99, 3-((7-(5-chloro-3-methyl-2-(((2R,6R)-6-methylmorpholin-2-yl)methyl)phenyl)thieno[3,2-b]pyridin-2-yl)methyl)-3-azabicyclo[3.1.0]hexane-2,4-dione], the figure is < 10 nM; as for `Cc1cc(Cl)cc(-c2ccnc3cc(CN4C(=O)C5CC5C4=O)sc23)c1CC1CNCCS1(=O)=O` (centres unmarked) [Example 100, 3-((7-(5-chloro-2-((1,1-dioxidothiomorpholin-2-yl)methyl)-3-methylphenyl)thieno[3,2-b]pyridin-2-yl)methyl)-3-azabicyclo[3.1.0]hexane-2,4-dione], 10 to 100 nM; as for `Cc1cc(Cl)cc(-c2ccnc3cc(CN4C(=O)C5C(C4=O)C5(C)C)sc23)c1CC1OCCNC1=O` (centres unmarked) [Example 101, 3-((7-(5-chloro-3-methyl-2-((3-oxomorpholin-2-yl)methyl)phenyl)thieno[3,2-b]pyridin-2-yl)methyl)-6,6-dimethyl-3-azabicyclo[3.1.0]hexane-2,4-dione], 10 to 100 nM.

(Values after US11084829B2, “Ubiquitin-specific-processing protease 7 (USP7) modulators and uses thereof” (RAPT THERAPEUTICS, INC., priority 2018, dated 2021).)
